Results from patent US10045985B2, “Heteroaryl compounds as BTK inhibitors and uses thereof” (Merck Patent GmbH, priority 2015, dated 2018).

How the values were obtained:
[1] = target: T1, BTK C481S enzyme (His-TEV-hsBTK(328-659)(C481S)) (Homo sapiens, UniProt Q06187, C481S); test: Assay B: microfluidic off-chip mobility shift assay for potency against BTK C481S enzyme; assay type: biochemical; conditions: 90 min at 25° C.
T1 construct: His-TEV-hsBTK(328-659)(C481S); His (N); TEV cleavage site (N)
Description: Assay B: Microfluidic Off-Chip Mobility Shift Assay Protocol for Potency Assessment Against BTK C481S Enzyme
The protocol below describes a microfluidic, off-chip mobility shift kinase assay to measure inherent potency of compounds against BTK C481S enzyme. The mechanics of the assay platform are described by the vendor (PerkinElmer, Hopkinton, Mass.) on their website at the following URL: http://caliperls.com.
Briefly, 2.5× stocks of His-TEV-hsBTK(328-659)(C481S) from the Merck Serono Protein Purification Laboratory in Darmstadt, Germany (PCS, Q27/234), 1.6×ATP and appropriate KinKDR peptide substrate (FITC-AHA-EEPLYWSFPAKKK-NH2; Tufts University Core Facility custom synthesis) were prepared in kinase reaction buffer consisting of 25 mM MgCl2, 0.015% Brij-35 (30%), 100 mM HEPES, pH 7.5, and 10 mM DTT.
5 uL of enzyme buffer and 7.5 uL of ATP/KinKDR peptide substrate mix were added to Matrix (#4315) 384-well, sterile, flat-bottom polypropylene plates (Thermo Fisher Scientific, Hudson, N.H.) with 125 nL of serially diluted compounds prepared in 100% DMSO, and incubated for 90 min. at 25° C. Following the incubation period, reactions were terminated by adding 65 uL quench buffer consisting of 100 mM HEPES, pH 7.5, 0.015% Brij-35 (30%), 0.277% Coating Reagent #3 (PerkinElmer, Mountain View, Calif.), 5% DMSO. Terminated reactions were monitored at −2 PSI, −3000 V/−700 Volts in a LabChip 3000 plate reader from Caliper Life Sciences, a PerkinElmer Company (Hopkinton, Mass.), and the activity was quantified by laser-induced fluorescence measuring the charge/mass difference between substrate and product resulting from peptide phosphorylation. IC50 and efficacy were determined by plotting log [Inhibitor] vs. % Activity in GeneData Screener (Basel, Switzerland).

full-length human BTK = target: T2, full-length human BTK (Homo sapiens, UniProt Q06187); test: Assay A: microfluidic off-chip mobility shift assay for potency against BTK enzyme; assay type: biochemical; conditions: 90 min at 27° C.
T2 construct: full-length human BTK (08-080) from CarnaBio USA, Inc; purchased CarnaBio USA, Inc., Natick, Mass; 08-080
Description: Assay A: Microfluidic Off-Chip Mobility Shift Assay Protocol for Potency Assessment Against BTK Enzyme
The protocol below describes microfluidic, off-chip mobility shift kinase assay to measure inherent potency of compounds against BTK enzyme. The mechanics of the assay platform are best described by the vendor (Caliper Life Sciences, a PerkinElmer Company, Hopkinton, Mass.) on their website at the following URL:
Briefly, 2.5× stocks of full-length human BTK (08-080) from CarnaBio USA, Inc., Natick, Mass., 1.6×ATP and appropriate kinKDR peptide substrate (FITC-AHA-EEPLYWSFPAKKK-NH2; developed in-house) were prepared in kinase reaction buffer consisting of 25 mM MgCl2, 0.015% Brij-35 (30%), 100 mM Hepes, pH 7.5, and 10 mM DTT.
5 uL of enzyme buffer and 7.5 uL of ATP/kinKDR peptide substrate mix were added to Matrix (#115304) 384-well, sterile, polypropylene plates (Thermo Fisher Scientific, Hudson, N.H.) with 125 nL of serially diluted compounds prepared in 100% DMSO, and incubated for 90 min. at 27° C. following the incubation period, reactions were stopped by adding 60 uL stop buffer consisting of 100 mM Hepes, pH 7.5, 0.015% Brij-35 (30%), 0.277% Coating Reagent #3 (Caliper Life Sciences, Mountain View, Calif.), 5% DMSO. Stopped reactions were monitored at −2 PSI, −3000 V/−700 V in a LabChip 3000 plate reader from Caliper Life Sciences, a PerkinElmer Company (Hopkinton, Mass.), and the activity was measured by off-chip mobility shift assay measuring the charge/mass difference between substrate and product resulting from peptide phosphorilation. IC50 and efficacy were determined by plotting log [Inhibitor] vs. % Activity in GeneData Screener (Basel, Switzerland).

T1 sequence (Q06187 328-659 C481S): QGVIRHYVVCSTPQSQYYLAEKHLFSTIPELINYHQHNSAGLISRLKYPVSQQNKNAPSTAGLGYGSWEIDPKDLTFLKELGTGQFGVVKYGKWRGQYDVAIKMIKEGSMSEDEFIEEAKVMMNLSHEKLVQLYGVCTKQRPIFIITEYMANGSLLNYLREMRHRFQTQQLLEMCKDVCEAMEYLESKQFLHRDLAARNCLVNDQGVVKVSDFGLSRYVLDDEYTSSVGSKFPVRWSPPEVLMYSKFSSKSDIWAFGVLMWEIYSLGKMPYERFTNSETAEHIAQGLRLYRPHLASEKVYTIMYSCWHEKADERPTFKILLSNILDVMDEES
T2 sequence (Q06187 whole entry): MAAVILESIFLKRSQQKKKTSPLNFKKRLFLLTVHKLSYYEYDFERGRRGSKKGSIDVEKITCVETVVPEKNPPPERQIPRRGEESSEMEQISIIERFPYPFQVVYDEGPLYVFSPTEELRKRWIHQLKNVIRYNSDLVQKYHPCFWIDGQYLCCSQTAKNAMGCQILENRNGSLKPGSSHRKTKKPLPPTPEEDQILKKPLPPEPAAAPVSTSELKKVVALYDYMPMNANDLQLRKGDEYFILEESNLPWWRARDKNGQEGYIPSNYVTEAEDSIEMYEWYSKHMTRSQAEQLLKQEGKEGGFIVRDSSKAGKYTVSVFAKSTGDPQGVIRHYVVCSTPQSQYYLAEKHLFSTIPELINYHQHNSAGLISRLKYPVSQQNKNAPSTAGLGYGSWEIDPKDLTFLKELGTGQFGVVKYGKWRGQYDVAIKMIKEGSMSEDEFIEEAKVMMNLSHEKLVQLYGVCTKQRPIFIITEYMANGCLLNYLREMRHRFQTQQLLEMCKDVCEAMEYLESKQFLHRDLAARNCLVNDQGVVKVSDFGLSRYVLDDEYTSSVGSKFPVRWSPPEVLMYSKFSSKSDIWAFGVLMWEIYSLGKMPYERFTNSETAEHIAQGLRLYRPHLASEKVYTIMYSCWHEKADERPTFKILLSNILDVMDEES

## COCCOc1ccc(Nc2ncc(F)c(N[C@@H]3CCC[C@@H](NC(=O)c4ccc(C(C)(C)C)cc4)C3)n2)cc1 (racemic) [Compound 19, 4-(tert-butyl)-N-(trans-3-((5-fluoro-2-((4-(2-methoxyethoxy)phenyl)amino)pyrimidin-4-yl)amino)cyclohexyl)benzamide]
[1]
  IC50: < 0.1 µM
full-length human BTK
  IC50: < 0.1 µM

## COCCOc1ccc(Nc2ncc(F)c(N3CCC4CN(C(=O)c5ccc(C(C)(C)C)cc5)CC43)n2)cc1 (stereo not shown) [Compound 20, (4-(tert-butyl)phenyl)(1-(5-fluoro-2-((4-(2-methoxyethoxy)phenyl)amino)pyrimidin-4-yl)hexahydropyrrolo[3,4-b]pyrrol-5(1H)-yl)methanone]
full-length human BTK
  IC50: > 5 µM

## COCCOc1ccc(Nc2ncc(F)c(N3CC4CN(C(=O)c5ccc(C(C)(C)C)cc5)CC4C3)n2)cc1 (stereo not shown) [Compound 18, (4-(tert-butyl)phenyl)(5-(5-fluoro-2-((4-(2-methoxyethoxy)phenyl)amino)pyrimidin-4-yl)hexahydropyrrolo[3,4-c]pyrrol-2(1H)-yl)methanone]
full-length human BTK
  IC50: > 5 µM

## COCCOc1ccc(Nc2ncc(F)c(N3CCCC4(CCCN(C(=O)c5ccc(C(C)(C)C)cc5)C4)C3)n2)cc1 (stereo not shown) [Compound 21, (4-(tert-butyl)phenyl)(8-(5-fluoro-2-((4-(2-methoxyethoxy)phenyl)amino)pyrimidin-4-yl)-2,8-diazaspiro[5.5]undecan-2-yl)methanone]
full-length human BTK
  IC50: > 5 µM

## COCCOc1ccc(Nc2ncc(F)c(N3CCC[C@@H](NC(=O)CNc4cccc(Cl)c4)C3)n2)cc1 [Compound 2, (R)-2-((3-chlorophenyl)amino)-N-(1-(5-fluoro-2-((4-(2-methoxyethoxy)phenyl)amino)pyrimidin-4-yl)piperidin-3-yl)acetamide]
[1]
  IC50: > 5 µM
full-length human BTK
  IC50: > 5 µM

## COCCOc1ccc(Nc2ncc(F)c(N3CCC(CNC(=O)c4ccc(C(C)(C)C)cc4)C3)n2)cc1 (racemic) [Compound 17, 4-(tert-butyl)-N-((1-(5-fluoro-2-((4-(2-methoxyethoxy)phenyl)amino)pyrimidin-4-yl)pyrrolidin-3-yl)methyl)benzamide]
full-length human BTK
  IC50: > 5 µM

## COCCOc1ccc(Nc2ncc(F)c(Nc3cccc(NC(=O)CNc4cccc(Cl)c4)c3)n2)cc1 [Compound 4, 2-((3-chlorophenyl)amino)-N-(3-((5-fluoro-2-((4-(2-methoxyethoxy)phenyl)amino)pyrimidin-4-yl)amino)phenyl)acetamide]
[1]
  IC50: 0.1 to 1 µM
full-length human BTK
  IC50: 1 to 5 µM

## COCCOc1ccc(Nc2ncc(F)c(NC3CCCC(NC(=O)c4cc(C(C)(C)C)on4)C3O)n2)cc1 (racemic) [Compound 27]
[1]
  IC50: 0.1 to 1 µM
full-length human BTK
  IC50: 0.1 to 1 µM

## COCCOc1ccc(Nc2ncc(F)c(Nc3cccc(NC(=O)c4ccc(C(C)(C)C)cc4)c3)n2)cc1 [Compound 6]
[1]
  IC50: 1 to 5 µM
full-length human BTK
  IC50: 1 to 5 µM

## COCCOc1ccc(Nc2ncc(F)c(N3CCC[C@@H](NC(=O)c4ccc(C(C)(C)C)cc4)C3)n2)cc1 [Compound 1, (R)0-4-(tert-butyl)-N-(1-(5-fluoro-2-((4-(2-methoxyethoxy)phenyl)amino)pyrimidin-4-yl)piperidin-3-yl)benzamide]
full-length human BTK
  IC50: > 5 µM

## COCCOc1ccc(Nc2ncc(F)c(NC3CCCC(NC(=O)Cc4ccc(C(C)(C)C)cc4)C3)n2)cc1 (stereo not shown) [Compound 13, 2-(4-tert-Butyl-phenyl)-N-(3-{5-fluoro-2-[4-(2-methoxy-ethoxy)-phenylamino]-pyrimidin-4-ylamino}-cyclohexyl)-acetamide]
full-length human BTK
  IC50: > 5 µM

## COCCOc1ccc(Nc2ncc(F)c(N[C@@H]3CCC[C@@H](NC(=O)c4ccc(C(C)(C)C)cc4)C3)n2)cc1 [Compound 22, 4-(tert-butyl)-N-((1R,3R)-3-((5-fluoro-2-((4-(2-methoxyethoxy)phenyl)amino)pyrimidin-4-yl)amino)cyclohexyl) benzamide]
full-length human BTK
  IC50: < 0.1 µM

## COCCOc1ccc(Nc2ncc(F)c(N3CC[C@H](NC(=O)c4ccc(C(C)(C)C)cc4)C3)n2)cc1 [Compound 9, (S)-4-(tert-butyl)-N-(1-(5-fluoro-2-((4-(2-methoxyethoxy)phenyl)amino)pyrimidin-4-yl)pyrrolidin-3-yl)benzamide]
full-length human BTK
  IC50: > 5 µM

## COCCOc1ccc(Nc2ncc(F)c(N[C@@H]3CCC[C@@H](NC(=O)c4ccc(C(C)(C)C)cc4)C3O)n2)cc1 (stereo partly shown) [Compound 24]
[1]
  IC50: < 0.1 µM
full-length human BTK
  IC50: < 0.1 µM

## COCCOc1ccc(Nc2ncc(F)c(NC3CCCC(NC(=O)c4ccc(C(C)(C)C)cc4)C3)n2)cc1 (racemic) [Compound 3, 4-(tert-butyl)-N-(3-((5-fluoro-2-((4-(2-methoxyethoxy)phenyl)amino)pyrimidin-4-yl)amino)cyclohexyl)benzamide]
[1]
  IC50: 0.1 to 1 µM
full-length human BTK
  IC50: 0.1 to 1 µM

## COCCOc1ccc(Nc2ncc(F)c(NC3CCCC(NC(=O)CNc4cccc(Cl)c4)C3)n2)cc1 (racemic) [Compound 5]
[1]
  IC50: 1 to 5 µM
full-length human BTK
  IC50: 1 to 5 µM

## COCCOc1ccc(Nc2ncc(F)c(N[C@H]3CCC[C@H](NC(=O)c4ccc(C(C)(C)C)cc4)C3)n2)cc1 [Compound 23, 4-(tert-butyl)-N-((1S,3S)-3-((5-fluoro-2-((4-(2-methoxyethoxy)phenyl)amino)pyrimidin-4-yl)amino)cyclohexyl)benzamide]
full-length human BTK
  IC50: 1 to 5 µM

## COCCOc1ccc(Nc2ncc(F)c(N[C@H]3CCC[C@H](NC(=O)c4ccc(C(C)(C)C)cc4)[C@H]3O)n2)cc1 [Compound 25]
full-length human BTK
  IC50: 1 to 5 µM

## COCCOc1ccc(Nc2ncc(F)c(NC3CCCC(NC(=O)c4ccc(C(C)(C)O)cc4)C3)n2)cc1 (stereo not shown) [Compound 12, N-(3-{5-Fluoro-2-[4-(2-methoxy-ethoxy)-phenylamino]-pyrimidin-4-ylamino}-cyclohexyl)0-4-(1-hydroxy-1-methyl-ethyl)-benzamide]
[1]
  IC50: 0.1 to 1 µM
full-length human BTK
  IC50: 0.1 to 1 µM

## COCCOc1ccc(Nc2ncc(F)c(N3CCCC(CNC(=O)c4ccc(C(C)(C)C)cc4)C3)n2)cc1 (racemic) [Compound 7, 4-(tert-butyl)-N-((1-(5-fluoro-2-((4-(2-methoxyethoxy)phenyl)amino)pyrimidin-4-yl)piperidin-3-yl)methyl)benzamide]
full-length human BTK
  IC50: > 5 µM

## COCCOc1ccc(Nc2ncc(F)c(N3CCCC4(CCN(C(=O)c5ccc(C(C)(C)C)cc5)C4)C3)n2)cc1 (stereo not shown) [Compound 15, (4-(tert-butyl)phenyl)(7-(5-fluoro-2-((4-(2-methoxyethoxy)phenyl)amino)pyrimidin-4-yl)-2,7-diazaspiro[4.5]decan-2-yl)methanone]
full-length human BTK
  IC50: > 5 µM

## COCCOc1ccc(Nc2ncc(F)c(NCC3CCN(C(=O)c4ccc(C(C)(C)C)cc4)C3)n2)cc1 (racemic) [Compound 8, (4-(tert-butyl)phenyl)(3-(((5-fluoro-2-((4-(2-methoxyethoxy)phenyl)amino)pyrimidin-4-yl)amino)methyl)pyrrolidin-1-yl)methanone]
full-length human BTK
  IC50: > 5 µM

## COCCOc1ccc(Nc2ncc(F)c(NC3CCCC(NC(=O)c4ccc(N(C)C)cc4)C3)n2)cc1 (stereo not shown) [Compound 11, 4-Dimethylamino-N-(3-{5-fluoro-2-[4-(2-methoxy-ethoxy)-phenylamino]-pyrimidin-4-ylamino}-cyclohexyl)-benzamide]
[1]
  IC50: 0.1 to 1 µM
full-length human BTK
  IC50: 0.1 to 1 µM

## COCCOc1ccc(Nc2ncc(F)c(NC3CCCC(NC(=O)c4coc(-c5ccccc5)n4)C3)n2)cc1 (stereo not shown) [Compound 14, 2-Phenyl-oxazole-4-carboxylic acid (3-{5-fluoro-2-[4-(2-methoxy-ethoxy)-phenylamino]-pyrimidin-4-ylamino}-cyclohexyl)-amide]
full-length human BTK
  IC50: > 5 µM
